Tests used:
[1] = tested on: Escherichia coli strain ATCC25922; assay: Standard microdilution MIC assay, E. coli; type: cell-based
Description: (§1) The in vitro activity of the compounds of the present disclosure can be determined. Antimicrobial testing is typically performed to determine the minimum inhibitory concentration (MIC). Minimum inhibitory concentrations (MICs) are determined by the microdilution method in a final volume of 100 μl according to protocols outlined by The Clinical and Laboratory Standards Institute (CLSI). Performance standards for reference strains are assessed within the same experimental design to maintain quality control. See, for example, Clinical Laboratory Standards Institute: Methods for dilution antimicrobial susceptibility tests for bacteria that grow aerobically M7-A8. Approved Standard-Eighth Edition. Wayne, PA: CLSI; December 2008; and Clinical Laboratory Standards Institute: Performance Standards for Antimicrobial Susceptibility Testing M100-S20; Approved Standard-Twentieth Edition. Wayne, PA: CLSI; June 2010.
(§2) The compounds of the present disclosure were tested for antimicrobial activity. The Compounds 1-293 were run against Escherichia coli (E co/i) strain ATCC25922 and against Staphylococcus aureus (S. aureus) 11540 strain using a standard microdilution assay to determine minimum inhibitory concentrations (MICs). […] It will be recognized by one skilled in the art that the compounds can be assessed against other bacterial organisms and that the presentation of data for activity against Escherichia coli and Staphylococcus aureus are illustrative and in no way is intended to limit the scope of the present disclosure. The compounds of the present disclosure can be assayed against a range of other microorganisms depending upon the performance activity desired to be gathered. Furthermore, the “+” and “−” representation and the selection of a cutoff value of 16 micrograms/mL is also illustrative and in no way is intended to limit the scope of the present disclosure.

[2] = tested on: Staphylococcus aureus (S. aureus) 11540 strain; assay: Standard microdilution MIC assay, S. aureus; type: cell-based
Description: as §1, §2

| MIC [1] [µg/mL] | MIC [2] [µg/mL] | SMILES |
| --- | --- | --- |
| ≤ 16 | ≤ 16 | CC(=N)NCC[C@@H]1COC[C@@H](c2ccc(-n3cc4cc(-c5cc(CCC[C@@H](N)C6CC6)cc(Cl)c5F)[nH]c4nc3=O)cc2)N1 [Compound 98] |
| ≤ 16 | ≤ 16 | CC(=N)NCCCN[C@@H](C)c1ccc(-n2cc3cc(-c4cc(CCC[C@@H](N)C5CC5)cc(Cl)c4F)[nH]c3nc2=O)cc1F [Compound 99] |
| ≤ 16 | ≤ 16 | CC(=N)NCC[C@H](CO)NCc1ccc(-n2cc3cc(-c4cc(CCC[C@@H](N)CF)cc(Cl)c4F)[nH]c3nc2=O)cc1 [Compound 100] |
| ≤ 16 | ≤ 16 | C=C[C@H](N)CCCc1cc(Cl)c(F)c(-c2cc3cn(-c4ccc(CN[C@@H](C=C)CCNC(C)=N)cc4)c(=O)nc3[nH]2)c1 [Compound 101] |
| ≤ 16 | ≤ 16 | CC(=N)NCCCN[C@@H](C)c1ccc(-n2cc3cc(-c4cc(CCC[C@@H](N)C(F)(F)F)cc(Cl)c4F)[nH]c3nc2=O)cc1 [Compound 102] |
| ≤ 16 | ≤ 16 | C=C[C@@H](CCNC(C)=N)NCc1ccc(-n2cc3cc(-c4cc(CCC[C@@H](N)CF)cc(Cl)c4F)[nH]c3nc2=O)cc1 [Compound 103] |
| ≤ 16 | ≤ 16 | CC(=N)NCC[C@@H]1CCC[C@@H](c2ccc(-n3cc4cc(-c5cc(CCC[C@@H](N)CF)cc(Cl)c5F)[nH]c4nc3=O)cc2)N1 [Compound 104] |
| ≤ 16 | ≤ 16 | C=C[C@@H](CCNC(C)=N)NCc1ccc(-n2cc3cc(-c4cc(CCC(F)(F)CN)cc(Cl)c4F)[nH]c3nc2=O)cc1 [Compound 105] |
| ≤ 16 | ≤ 16 | CC(=N)NCCCN[C@@H](C)c1ccc(-n2cc3cc(-c4cc(CCC(F)(F)CN)cc(Cl)c4F)[nH]c3nc2=O)cc1F [Compound 106] |
| ≤ 16 | ≤ 16 | CC(=N)NCCCN[C@@H](C)c1ccc(-n2cc3cc(-c4cc(CCC[C@@H](N)CF)cc(Cl)c4F)[nH]c3nc2=O)cc1F [Compound 107] |
| ≤ 16 | ≤ 16 | C[C@H](N)CCCc1cc(Cl)c(F)c(-c2cc3cn(-c4ccc([C@@H]5CCC[C@@H](CCNC(=N)CF)N5C)cc4)c(=O)nc3[nH]2)c1 [Compound 108] |
| ≤ 16 | ≤ 16 | CC(=N)NCC[C@@H]1CCC[C@@H](c2ccc(-n3cc4cc(-c5cc(CCC[C@H](C)N)cc(Cl)c5F)[nH]c4nc3=O)cc2)N1C [Compound 109] |
| ≤ 16 | ≤ 16 | C=C[C@H](N)CCCc1cc(Cl)c(F)c(-c2cc3cn(-c4ccc([C@H](C)NCCCNC(C)=N)c(F)c4)c(=O)nc3[nH]2)c1 [Compound 111] |
| ≤ 16 | ≤ 16 | CC(=N)NCCCN[C@H](C)c1ccc(-n2cc3cc(-c4cc(CCC[C@H](C)N)cc(Cl)c4F)[nH]c3nc2=O)cc1F [Compound 112] |
| ≤ 16 | ≤ 16 | CC(=N)NCCCN[C@@H](C)c1ccc(-n2cc3cc(-c4cc(CCC[C@@H](N)CO)cc(Cl)c4F)[nH]c3nc2=O)cc1F [Compound 113] |
| ≤ 16 | ≤ 16 | C[C@H](N)CCCc1cc(Cl)c(F)c(-c2cc3cn(-c4ccc([C@@H](C)NCCCNC(=N)CF)c(F)c4)c(=O)nc3[nH]2)c1 [Compound 114] |
| ≤ 16 | ≤ 16 | CSc1cc(-n2cc3cc(-c4cc(CCC[C@H](C)N)cc(Cl)c4F)[nH]c3nc2=O)ccc1[C@@H]1CCC[C@@H](CCNC(C)=N)N1 [Compound 115] |
| ≤ 16 | ≤ 16 | CSc1cc(-n2cc3cc(-c4cc(CCC[C@@H](N)CO)cc(Cl)c4F)[nH]c3nc2=O)ccc1[C@@H]1CCC[C@@H](CCNC(C)=N)N1 [Compound 116] |
| ≤ 16 | ≤ 16 | CC(=N)NCC[C@@H]1CCC[C@@H](c2ccc(-n3cc4cc(-c5cc(CCC[C@@H](N)CO)cc(Cl)c5F)[nH]c4nc3=O)cc2S(C)(=O)=O)N1 [Compound 118] |
| ≤ 16 | ≤ 16 | CC(=N)NCC[C@@H]1CCC[C@@H](c2ccc(-n3cc4cc(-c5cc(CCC[C@@H](N)CO)cc(Cl)c5F)[nH]c4nc3=O)cc2)N1C [Compound 121] |
| ≤ 16 | ≤ 16 | CN1[C@H](CCNC(=N)CF)CCC[C@H]1c1ccc(-n2cc3cc(-c4cc(CCC[C@@H](N)CO)cc(Cl)c4F)[nH]c3nc2=O)cc1 [Compound 122] |
| ≤ 16 | ≤ 16 | C=C[C@@H](N)CCCc1cc(Cl)c(F)c(-c2cc3cn(-c4ccc([C@@H]5CCC[C@@H](CCNC(C)=N)N5C)cc4)c(=O)nc3[nH]2)c1 [Compound 124] |
| ≤ 16 | ≤ 16 | C[C@H](NCCCNC(=N)CF)c1ccc(-n2cc3cc(-c4cc(CCC[C@@H](N)CO)cc(Cl)c4F)[nH]c3nc2=O)cc1F [Compound 125] |

| MIC [1] [µg/mL] | MIC [2] [µg/mL] | SMILES |
| --- | --- | --- |
| ≤ 16 | ≤ 16 | CSc1cc(-n2cc3cc(-c4cc(CCC[C@@H](N)CF)cc(Cl)c4F)[nH]c3nc2=O)ccc1[C@@H]1CCC[C@@H](CCNC(C)=N)N1 [Compound 126] |
| ≤ 16 | ≤ 16 | C=C[C@@H](N)CCCc1cc(Cl)c(F)c(-c2cc3cn(-c4ccc([C@@H]5CCC[C@@H](CCNC(C)=N)N5)c(SC)c4)c(=O)nc3[nH]2)c1 [Compound 128] |
| ≤ 16 | ≤ 16 | CSc1cc(-n2cc3cc(-c4cc(CCC(F)(F)CN)cc(Cl)c4F)[nH]c3nc2=O)ccc1[C@@H]1CCC[C@@H](CCNC(C)=N)N1 [Compound 129] |
| ≤ 16 | ≤ 16 | CC(=N)NCCCN[C@H](c1ccc(-n2cc3cc(-c4cc(CCC[C@H](C)N)cc(Cl)c4F)[nH]c3nc2=O)cc1)C(F)(F)F [Compound 130] |
| ≤ 16 | ≤ 16 | CC(=N)NCCCN[C@@H](C)c1ccc(-n2cc3cc(-c4cc(CCCC5(N)CC5)cc(Cl)c4F)[nH]c3nc2=O)cc1 [Compound 131] |
| ≤ 16 | ≤ 16 | CC(=N)NCCCN[C@@H](CO)c1ccc(-n2cc3cc(-c4cc(CCC[C@H](C)N)cc(Cl)c4F)[nH]c3nc2=O)cc1 [Compound 132] |
| ≤ 16 | ≤ 16 | CC(=N)NCCCN[C@@H](CO)c1ccc(-n2cc3cc(-c4cc(CCC[C@@H](N)CO)cc(Cl)c4F)[nH]c3nc2=O)cc1 [Compound 133] |
| ≤ 16 | ≤ 16 | CC(=N)NCCCN[C@@H](CO)c1ccc(-n2cc3cc(-c4cc(CCC[C@@H](N)C5CC5)cc(Cl)c4F)[nH]c3nc2=O)cc1 [Compound 134] |
| ≤ 16 | ≤ 16 | CC(=N)NCC[C@@H]1CCC[C@@H](c2ccc(-n3cc4cc(-c5cc(CCC(F)(F)CN)cc(Cl)c5F)[nH]c4nc3=O)cc2)N1C [Compound 135] |
| ≤ 16 | ≤ 16 | CC(=N)NCCCN[C@@H](CO)c1ccc(-n2cc3cc(-c4cc(CCC[C@@H](N)CF)cc(Cl)c4F)[nH]c3nc2=O)cc1 [Compound 136] |
| ≤ 16 | ≤ 16 | CC(=N)NCC[C@@H]1CCC[C@@H](c2ccc(-n3cc4cc(-c5cc(CCC[C@@H](N)CF)cc(Cl)c5F)[nH]c4nc3=O)cc2)N1C [Compound 137] |
| ≤ 16 | ≤ 16 | CC(=N)NCCCNC1(c2ccc(-n3cc4cc(-c5cc(CCC[C@@H](N)CO)cc(Cl)c5F)[nH]c4nc3=O)cc2)CC1 [Compound 138] |
| ≤ 16 | ≤ 16 | CC(=N)NCC[C@@H]1CCC[C@@H](c2ccc(-n3cc4cc(-c5cc(CCC[C@@H](N)C(F)F)cc(Cl)c5F)[nH]c4nc3=O)cc2)N1 [Compound 139] |
| ≤ 16 | ≤ 16 | C=C[C@@H](CCNC(C)=N)NCc1ccc(-n2cc3cc(-c4cc(CCC[C@@H](N)C(F)F)cc(Cl)c4F)[nH]c3nc2=O)cc1 [Compound 140] |
| ≤ 16 | ≤ 16 | CC(=N)NCC[C@@H]1CCC[C@@H](c2ccc(-n3cc4cc(-c5cc(CCC[C@H](N)C(F)F)cc(Cl)c5F)[nH]c4nc3=O)cc2)N1 [Compound 141] |
| ≤ 16 | ≤ 16 | C=C[C@@H](CCNC(C)=N)NCc1ccc(-n2cc3cc(-c4cc(CCC[C@H](N)C(F)F)cc(Cl)c4F)[nH]c3nc2=O)cc1 [Compound 142] |
| ≤ 16 | ≤ 16 | CC(=N)NCCCNC1(c2ccc(-n3cc4cc(-c5cc(CCC[C@@H](N)C6CC6)cc(Cl)c5F)[nH]c4nc3=O)cc2)CC1 [Compound 143] |
| ≤ 16 | ≤ 16 | C=C[C@@H](N)CCCc1cc(Cl)c(F)c(-c2cc3cn(-c4ccc(C5(NCCCNC(C)=N)CC5)cc4)c(=O)nc3[nH]2)c1 [Compound 144] |
| ≤ 16 | ≤ 16 | CC(=N)NCCCNC1(c2ccc(-n3cc4cc(-c5cc(CCC[C@H](C)N)cc(Cl)c5F)[nH]c4nc3=O)cc2)CC1 [Compound 145] |
| ≤ 16 | ≤ 16 | C=C[C@@H](CCNC(C)=N)NCc1ccc(-n2cc3cc(-c4cc(CCCC5(N)CC5)cc(Cl)c4F)[nH]c3nc2=O)cc1 [Compound 146] |
| ≤ 16 | ≤ 16 | CC(=N)NCC[C@@H]1CCC[C@@H](c2ccc(-n3cc4cc(-c5cc(CCCC6(N)CC6)cc(Cl)c5F)[nH]c4nc3=O)cc2)N1 [Compound 147] |
| ≤ 16 | ≤ 16 | CC(=N)NCCCN[C@@H](C)c1ccc(-n2cc3cc(-c4cc(CCCC5(N)CC5)cc(Cl)c4F)[nH]c3nc2=O)cc1F [Compound 148] |

From patent US11999739B2, “Antimicrobials methods of making and using the same” (BIOVERSYS AG, priority 2016, dated 2024)
